pIC50: −log10 of the molar value.
Target: T1, Recombinant human cathepsin A (Homo sapiens, UniProt P10619)
T1 construct: Recombinant human cathepsin A (residues 29-480, with a C-terminal 10-His tag); 10-His (C); purchased R&D Systems 1049-SE
T1 sequence (P10619 29-312 limits assumed): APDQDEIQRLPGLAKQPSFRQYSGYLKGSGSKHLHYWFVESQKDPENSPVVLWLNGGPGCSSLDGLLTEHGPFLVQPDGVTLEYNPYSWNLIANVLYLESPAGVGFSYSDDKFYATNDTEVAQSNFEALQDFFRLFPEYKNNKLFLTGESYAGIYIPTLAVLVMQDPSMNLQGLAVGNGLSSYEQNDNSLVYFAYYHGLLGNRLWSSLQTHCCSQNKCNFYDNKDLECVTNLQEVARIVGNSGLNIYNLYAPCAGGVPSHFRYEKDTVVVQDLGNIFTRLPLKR
T1 sequence (P10619 327-480 limits assumed): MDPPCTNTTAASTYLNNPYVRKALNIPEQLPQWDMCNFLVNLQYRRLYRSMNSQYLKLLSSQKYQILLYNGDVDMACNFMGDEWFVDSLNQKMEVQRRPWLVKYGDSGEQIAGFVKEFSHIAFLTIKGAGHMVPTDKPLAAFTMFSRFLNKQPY
Test: Cathepsin A inhibitory activity
Assay type: biochemical
Settings: pharmacological test "Cathepsin A inhibitory activity"; IC50 given as class A/B/C; read-out: Activity (2): Cathepsin A inhibitory activity, IC50 class
Outline: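 Human cathepsin A (res. 29-480, C-His10) pre-activated with cathepsin L (MES pH 6.0, DTT, 15 min, 37 °C; quenched with 10 μM E-64). Enzyme (833 ng/ml) preincubated 15 min RT with compound in MES pH 5.5/DTT, then 2 μM Bodipy FL-bradykinin for 15 min RT. Capillary electrophoresis product/substrate peak areas; IC50 from % inhibition.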

| SMILES | pIC50 |
| --- | --- |
| COc1ccccc1[C@H](CC(=O)O)NC(=O)c1cc(O)n(-c2cccc(Cl)c2)n1 [Example 253] | 6.00 to 7.00 |
| O=C(O)C[C@H](NC(=O)c1cc(O)n(-c2cccc(Cl)c2)n1)c1ccccc1Br [Example 251] | 6.00 to 7.00 |
| O=C(O)CC(NC(=O)c1cc(O)n(-c2ccc(F)cc2F)n1)c1ccc(-c2ccccc2)cc1 (stereo not shown) [Example 197] | 6.00 to 7.00 |
| CCc1ccc(C(CC(=O)O)NC(=O)c2cc(O)n(-c3ccc(F)cc3F)n2)cc1 (stereo not shown) [Example 194] | 6.00 to 7.00 |

Same assay, conditions: read-out: Activity (2): Cathepsin A inhibitory activity (IC50 class)

| SMILES | pIC50 |
| --- | --- |
| O=C(O)C[C@H](NC(=O)c1cc(OCC2CC2)n(-c2ccccc2F)n1)c1ccccc1 [Example 685] | > 7.00 |
| Cc1ccccc1[C@H](CC(=O)O)NC(=O)c1cc(OCC(C)(C)C)n(-c2ccccc2F)n1 [Example 632] | > 7.00 |
| O=C(O)CC(NC(=O)c1cc(O)n(C2CCCC2)n1)c1ccc(-c2ccc(F)cc2)cc1 (stereo not shown) [Example 574] | 4.52 to 6.00 |
| CC(C)C(C)(O)COc1cc(C(=O)N[C@@H](CC(=O)O)c2cccc(F)c2)nn1-c1ccccc1F (stereo partly drawn) [Example 782, (S)-3-(3-Fluoro-phenyl)-3-{[1-(2-fluoro-phenyl)-5-(2-hydroxy-2,3-dimethyl-butoxy)-1H-pyrazole-3-carbonyl]-amino}-propionic acid] | > 7.00 |
| COc1cccc(COc2cc(C(=O)N[C@@H](CC(=O)O)c3ccccc3C)nn2-c2ccccc2F)c1 [Example 655] | > 7.00 |
| Cc1ccc([C@H](CC(=O)O)NC(=O)c2cc(OC[C@H](O)C(C)(C)C)n(-c3ccccc3F)n2)cc1 [Example 788, (S)-3-{[1-(2-Fluoro-phenyl)-5-((R)-2-hydroxy-3,3-dimethyl-butoxy)-1H-pyrazole-3-carbonyl]-amino}-3-p-tolyl-propionic acid] | > 7.00 |
| Cc1ccccc1[C@H](CC(=O)O)NC(=O)c1cc(OCC(C)(O)C(C)C)n(-c2ccccc2F)n1 (stereo partly drawn) [Example 770, (S)-3-{[1-(2-Fluoro-phenyl)-5-(2-hydroxy-2,3-dimethyl-butoxy)-1H-pyrazole-3-carbonyl]-amino}-3-o-tolyl-propionic acid] | > 7.00 |

More lines, now with the values ahead:

| pIC50 | SMILES |
| --- | --- |
| 6.00 to 7.00 | Cc1ccccc1[C@H](CC(=O)O)NC(=O)c1cc(O)n(-c2cc(F)cc(F)c2)n1 [Example 586] |
| > 7.00 | COc1cc(C(=O)N[C@@H](CC(=O)O)c2ccc(C)cc2)nn1-c1ccccc1F [Example 675] |
| 6.00 to 7.00 | COc1cc(C(=O)NC(CC(=O)O)c2ccc(-c3ccc(F)cc3)cc2)nn1-c1ccccc1F (stereo not shown) [Example 543] |

Same assay, conditions: read-out: Activity (2): Cathepsin A inhibitory activity, IC50 class

| SMILES | pIC50 |
| --- | --- |
| COc1cccc([C@H](CC(=O)O)NC(=O)c2cc(O)n(-c3ccc(Cl)cc3)n2)c1 [Example 278] | 4.52 to 6.00 |
| CC(C)(C)[C@](C)(O)COc1cc(C(=O)N[C@H](CC(=O)O)Cc2ccc(C#N)cc2)nn1-c1ccccc1F [Example 832, (S)-4-(4-Cyano-phenyl)-3-{[1-(2-fluoro-phenyl)-5-((S)-2-hydroxy-2,3,3-trimethyl-butoxy)-1H-pyrazole-3-carbonyl]-amino}-butyric acid] | 4.52 to 6.00 |
| O=C(O)C[C@H](NC(=O)c1cc(O)n(-c2cccc(F)c2)n1)c1cccnc1 [Example 334] | 6.00 to 7.00 |
| CC(C)[C@](C)(O)COc1cc(C(=O)N[C@@H](CC(=O)O)c2ccc(Cl)cc2Cl)nn1-c1ccccc1F [Example 849, (S)-3-(2,4-Dichloro-phenyl)-3-{[1-(2-fluoro-phenyl)-5-((S)-2-hydroxy-2,3-dimethyl-butoxy)-1H-pyrazole-3-carbonyl]-amino}-propionic acid] | > 7.00 |
| Cc1ccc(C)c(-n2nc(C(=O)NC(C)(C)CC(=O)O)cc2O)c1 [Example 8] | 4.52 to 6.00 |
| O=C(O)C[C@H](NC(=O)c1cc(O)n(-c2ccc(Cl)cc2)n1)c1ccc(Cl)cc1 [Example 296] | 6.00 to 7.00 |
| Cc1ccccc1[C@H](CC(=O)O)NC(=O)c1cc(O)n(-c2ccc(F)cc2)n1 [Example 76] | > 7.00 |
| CC(C)c1ccc(C(CC(=O)O)NC(=O)c2cc(O)n(-c3ccccc3)n2)cc1 (stereo not shown) [Example 24] | 6.00 to 7.00 |
| CC(C)[C@](C)(O)COc1cc(C(=O)NC(CC(=O)O)Cc2ccccc2)nn1-c1ccccc1F (stereo partly drawn) [Example 826, 3-{[1-(2-Fluoro-phenyl)-5-((S)-2-hydroxy-2,3-dimethyl-butoxy)-1H-pyrazole-3-carbonyl]-amino}-4-phenyl-butyric acid] | 6.00 to 7.00 |
| CC(C)[C@](C)(O)COc1cc(C(=O)N[C@H](CC(=O)O)Cc2ccc(C#N)cc2)nn1-c1ccccc1F [Example 834, (S)-4-(4-Cyano-phenyl)-3-{[1-(2-fluoro-phenyl)-5-((S)-2-hydroxy-2,3-dimethyl-butoxy)-1H-pyrazole-3-carbonyl]-amino}-butyric acid] | 4.52 to 6.00 |
| CC(C)(C)C(=O)COc1cc(C(=O)N[C@@H](CC(=O)O)c2cccc(Cl)c2Cl)nn1-c1ccccc1F [Example 839, (S)-3-(2,3-Dichloro-phenyl)-3-{[5-(3,3-dimethyl-2-oxo-butoxy)-1-(2-fluoro-phenyl)-1H-pyrazole-3-carbonyl]-amino}-propionic acid] | > 7.00 |

More lines, now with the values ahead:

| pIC50 | SMILES |
| --- | --- |
| 4.52 to 6.00 | O=C(O)C[C@H](NC(=O)c1cc(O)n(-c2ccc(F)cc2)n1)c1ccc(F)cc1 [Example 346] |
| 6.00 to 7.00 | O=C(O)C[C@H](NC(=O)c1cc(O)n(-c2ccc(F)cc2)n1)c1cccc(C(F)(F)F)c1 [Example 355] |
| 6.00 to 7.00 | O=C(O)CC(NC(=O)c1cc(O)n(-c2ccccc2)n1)c1cccc(C(F)(F)F)c1 (stereo not shown) [Example 67] |
| 6.00 to 7.00 | O=C(O)C[C@H](NC(=O)c1cc(O)n(-c2ccccc2Cl)n1)c1ccc(C(F)(F)F)cc1 [Example 110] |

Same assay, conditions: recombinant human cathepsin A 833 ng/ml, Bodipy FL-labeled bradykinin 2 μM, pH 5.5; read-out: CATH-A IC50

| SMILES | pIC50 |
| --- | --- |
| O=C(O)C[C@H](NC(=O)c1cc(O)n(-c2cccc(Cl)c2)n1)c1ccccc1Cl [Example 514, (S)-3-(2-Chloro-phenyl)-3-{[1-(3-chloro-phenyl)-5-hydroxy-1H-pyrazole-3-carbonyl]-amino}-propionic acid] | 6.52 |
| O=C(O)CC(NC(=O)c1cc(O)n(-c2cccc(Cl)c2)n1)c1cccc2c1OC(F)(F)O2 (stereo not shown) [Example 464, 3-{[1-(3-Chloro-phenyl)-5-hydroxy-1H-pyrazole-3-carbonyl]-amino}-3-(2,2-difluoro-benzo[1,3]dioxol-4-yl)-propionic acid] | 6.56 |
| Cc1ccc(F)cc1C(CC(=O)O)NC(=O)c1cc(O)n(-c2ccccc2)n1 (stereo not shown) [Example 497, 3-(5-Fluoro-2-methyl-phenyl)-3-[(5-hydroxy-1-phenyl-1H-pyrazole-3-carbonyl)-amino]-propionic acid] | 6.84 |

Same assay, conditions: recombinant human cathepsin A; read-out: Activity (2): Cathepsin A inhibitory activity, IC50 class

| SMILES | pIC50 |
| --- | --- |
| COc1cc(C(=O)N[C@@H](CC(=O)O)c2ccccc2C)nn1-c1ccccc1 [Example 534, (S)-3-[(5-Methoxy-1-phenyl-1H-pyrazole-3-carbonyl)-amino]-3-o-tolyl-propionic acid] | > 7.00 |
| O=C(O)C[C@H](NC(=O)c1cc(O)n(-c2cccc(Cl)c2)n1)c1ccccc1Cl [Example 514, (S)-3-(2-Chloro-phenyl)-3-{[1-(3-chloro-phenyl)-5-hydroxy-1H-pyrazole-3-carbonyl]-amino}-propionic acid] | 6.00 to 7.00 |
| Cc1cc(F)ccc1C(CC(=O)O)NC(=O)c1cc(O)n(-c2cccc(Cl)c2)n1 (stereo not shown) [Example 420] | 6.00 to 7.00 |
| Cc1ccc(F)cc1C(CC(=O)O)NC(=O)c1cc(O)n(-c2ccccc2)n1 (stereo not shown) [Example 497, 3-(5-Fluoro-2-methyl-phenyl)-3-[(5-hydroxy-1-phenyl-1H-pyrazole-3-carbonyl)-amino]-propionic acid] | 6.00 to 7.00 |

Second part, the compound after the results:

| pIC50 | SMILES |
| --- | --- |
| 4.52 to 6.00 | O=C(O)CC(NC(=O)c1cc(O)n(-c2ccc(Cl)cc2)n1)c1ccc(-c2ccc(F)cc2)cc1 (stereo not shown) [Example 425] |
| 6.00 to 7.00 | COc1cc(C(=O)N[C@@H](CC(=O)NCc2nnn[nH]2)c2ccccc2C)nn1-c1ccccc1F [Example 928] |
| 4.52 to 6.00 | COc1cc(C(=O)N[C@@H](CC(=O)N[C@@H](C)C(C)(C)C)c2ccccc2C)nn1-c1ccccc1F [Example 920, 1-(2-Fluoro-phenyl)-5-methoxy-1H-pyrazole-3-carboxylic acid [(S)-1-o-tolyl-2-((S)-1,2,2-trimethyl-propylcarbamoyl)-ethyl]-amide] |
| 6.00 to 7.00 | O=C(O)CC(NC(=O)c1cc(O)n(-c2cccc(Cl)c2)n1)c1cccc2c1OC(F)(F)O2 (stereo not shown) [Example 464, 3-{[1-(3-Chloro-phenyl)-5-hydroxy-1H-pyrazole-3-carbonyl]-amino}-3-(2,2-difluoro-benzo[1,3]dioxol-4-yl)-propionic acid] |

— patent US8664257B2, “Oxygen-substituted 3-heteroaroylamino-propionic acid derivatives and their use as pharmaceuticals” (Sanofi, priority 2010, dated 2014)
